In patent US7432247B2, “Methods of cardioprotection using dichloroacetate in combination with an inotrope” (The Governors of the University of Alberta, priority 2002, dated 2008):
Values joined by “and” are separate entries in the source; they are usually repeats but may differ in a detail not shown here. Equal values may be shown once.

How the values were obtained:
Type in all cases: in vivo, human
[1] = DCA plasma levels in pediatric heart surgery patients, bolus and 24 hour infusion (Example C); conditions: for Average Optimum Mean of DCA Plasma Levels, mM at 1 hr / Average Optimum Mean of DCA Plasma Levels, mM at 6 hr / Average Optimum Mean of DCA Plasma Levels, mM at 12 hr / Average Optimum Mean of DCA Plasma Levels, mM at 24 hr: patients with greatest degree of clinical benefits
Procedure: (§1) In this trial, 53 infants were recruited to participate in a study, of which 51 patients met inclusion criteria after parental consent. Two dosing groups resulted from the study team changing the dosing protocol after the data from the initial 10 patients were analyzed. The data from patients number 1 to number 10 was analyzed for DCA therapeutic blood levels and therapeutic effect. A recommendation by the research team was made to increase the bolus dose of DCA and to decrease the infusion dose of DCA to maintain a DCA dose range of 1 mM for 24 hours. The intent was to administer the new protocol at patient number 20. The 1997 Epicore power calculations were based on separation of the study groups patients into group A of n=20 patients and Group B of n=31 patients
(§2) DCA (50 mg/kg) or placebo was injected into the aortic root immediately prior to removing aortic cross clamp. The coded solutions were made such that a dose of 1 ml/kg provided either a DCA therapeutic level of 1 mM plasma concentration of DCA, or a placebo solution. Immediately thereafter, an infusion of DCA at 25 mg/kg/hr or placebo in the same volume was initiated and run for 24 hours. Based on the pharmacokinetics of DCA, this was expected to maintain plasma levels of DCA in the therapeutic range of (0.2-1 mM). However, the plasma concentrations of DCA were below 1 mM after the first hour interval, and that the 24 hour plasma concentrations were elevated above 1 mM DCA levels at the 24 hour interval, a decision was made to modify the dosing protocol. This change in dosing protocol was approved by the Ethics Committee, but not implemented until patient number 24. All blood samples were analyzed by HPLC for DCA concentration. • (ii) Group B
(§3) DCA (100 mg/kg) or placebo was injected into the aortic root immediately prior to removing aortic cross clamp. The coded solutions were made such that a dose of 1 ml/kg provided either a DCA therapeutic level of 1 mM plasma concentration of DCA, or a placebo solution. Immediately thereafter, an infusion of DCA at 12.5 mg/kg/hr or placebo in the same volume was initiated and run for 24 hours. Based on the pharmacokinetics of DCA, this was expected to maintain plasma levels of DCA in the therapeutic range of (0.2-1 mM). All blood samples were analyzed by HPLC for DCA concentration.
Arterial blood samples were obtained from patients at the following times:
c. One hour after discontinuing cardiopulmonary bypass.
d. Six hours after discontinuing cardiopulmonary bypass
e. Twelve hours after discontinuing cardiopulmonary bypass.
f. Twenty four hours after discontinuing cardiopulmonary bypass.
Blood samples were collected from indwelling arterial lines into citrate-containing tubes (0.5 ml blood samples). The samples were spun in the microfuge, the plasma separated, and frozen immediately for later analysis. All plasma samples were stored at −80 degrees centigrade, until further processing. Plasma glucose and lactate were determined using a Sigma glucose kit and a spectrophotometric assay involving lactate dehydrogenase respectively. Plasma fatty acid levels were measured using an ELISA system and WAKO free fatty acid kit.

[2] = Observed side effects of DCA in patients
[3] = Mortality in the adult CABG study (Example A); conditions: DCA group, 8 adult patients, 50 mg/kg bolus
Procedure: DCA or saline was administered to 18 patients undergoing elective cardiac bypass grafting surgery (CABG) in a double blinded randomized manner DCA (50 mg/kg in 100 ml of saline) or placebo was injected into the aortic root, immediately prior to removing aortic cross clamp. Based on the pharmacokinetics of DCA, we anticipated that this would produce a plasma concentration of approximately 1 mM. The study consisted of 8 DCA-treated patients and 10 placebo-treated patients.
The intervention involved DCA (50 mg/kg) or placebo injected into the aortic root immediately prior to removing aortic cross clamp. The coded solution was made such that a dose of 1 ml/kg provides the appropriate dose of DCA or placebo. Based on the pharmacokinetics of DCA, this was expected to result in a plasma level of DCA in the therapeutic range of (1 mM). All blood samples were analyzed by HPLC for DCA concentration.

[4] = Plasma DCA levels after 50 mg/kg bolus in adult CABG patients (Example A); conditions: 50 mg/kg Na+ dichloroacetate, 1 hour following administration, n = 8 adult patients
Procedure: […] Based on the pharmacokinetics of DCA, we anticipated that this would produce a plasma concentration of approximately 1 mM. The study consisted of 8 DCA-treated patients and 10 placebo-treated patients.
[…] The coded solution was made such that a dose of 1 ml/kg provides the appropriate dose of DCA or placebo. Based on the pharmacokinetics of DCA, this was expected to result in a plasma level of DCA in the therapeutic range of (1 mM). All blood samples were analyzed by HPLC for DCA concentration.
Plasma samples were processed for DCA levels using a high performance liquid chromatography (HPLC) technique that separated the DCA from other plasma constituents. In brief, 20 μl of plasma sample was injected into a Beckman Gold HPLC containing a IonoBpher 5A column (250×4.6 mm LxID) and a AX Guard Column. The mobile phase of the column consisted of 10^-3 M pyromellitate buffer (pH=4.0). The flow rate of the HPLC was set at 3.0 ml/min and the DCA eluted from the column was detected by comparing DCA elution times to acetate, monochloroacetate, and trichloroacetate standards. Heart ventricular biopsy samples were taken at 0, and 20 minutes, and at 1 hour, following release of the cross clamp and reperfusion of the heart muscle, and immediately frozen in liquid N2. Blood samples were also taken at various intervals during the reperfusion period between 0 to 24 hours post-surgery.

[5] = Pediatric heart surgery study, DCA bolus and infusion vs placebo: inotrope score, ICU time, ventilator time (Example C); design: reduction of Inotrope Score compared to placebo: concentration or dose not given beside the values; conditions: for average decrease in Inotrope Score per patient compared to placebo: over the 24 hour period
Procedure: This study was a randomized, placebo-controlled, double blinded, single surgeon, study of the use of DCA in 51 high-risk pediatric patients requiring heart surgery to correct complex congenital heart lesions.
as §1, §2, §3
In both the operating room at the end of cardiopulmonary bypass and in the intensive care unit, parenteral drugs were scored on an hourly basis with 1 point allotted for each level for each bolus or infusion given within the previous hour within the first 24 hours post-operatively. Thus at the end of 24 hours, high scores indicated poorer cardiac function.

[6] = Group A: 50 mg/kg bolus and 25 mg/kg/hr infusion
[7] = Group B: 100 mg/kg bolus and 12.5 mg/kg/hr infusion
[8] = Group A: 50 mg/kg bolus and 25 mg/kg/hour infusion
[9] = Group A: 50 mg/kg bolus and 25 mg/kg/hour infusion, 23 patients
[10] = Group B: 100 mg/kg bolus and 12.5 mg/kg/hour infusion
[11] = Group B: 100 mg/kg bolus and 12.5 mg/kg/hour infusion, 24 patients

O=C(O)C(Cl)Cl [DCA, dichloroacetate]
optimum mean DCA plasma level ([1]; Example C, Group B, 1 to 6 hour interval): 1 mM | Average DCA Plasma Levels, mM at 6 hr [1, 6]: 1.134 mM | Average DCA Plasma Levels, mM at 12 hr [1, 6]: 1.771 mM | Average Optimum Mean of DCA Plasma Levels, mM at 1 hr [1, 6]: 1.0 mM | Average Optimum Mean of DCA Plasma Levels, mM at 6 hr [1, 6]: 0.916 mM | Average Optimum Mean of DCA Plasma Levels, mM at 12 hr [1, 6]: 1.52 mM and 1.523 mM | Average Optimum Mean of DCA Plasma Levels, mM at 24 hr [1, 6]: 2.29 mM and 2.288 mM | Average DCA Plasma Levels, mM at 1 hr [1, 7]: 1.131 mM | Average DCA Plasma Levels, mM at 6 hr [1, 7]: .894 mM | Average DCA Plasma Levels, mM at 12 hr [1, 7]: 1.427 mM | Average DCA Plasma Levels, mM at 24 hr [1, 7]: 2.231 mM | Average Optimum Mean of DCA Plasma Levels, mM at 1 hr [1, 7]: 1.012 mM | Average Optimum Mean of DCA Plasma Levels, mM at 6 hr [1, 7]: 1.0 mM | Average Optimum Mean of DCA Plasma Levels, mM at 12 hr [1, 7]: 1.0 mM | Average Optimum Mean of DCA Plasma Levels, mM at 24 hr [1, 7]: 1.0 mM | side-effects ([2]; patients): not have significant side-effects, although some patients experience mild drowsiness | adverse effects in previous (pilot) studies ([2]; previous studies): no adverse effects | mortality [3]: no mortalities | Plasma Dichloroacetate Levels [4]: approximately 1 mM | Plasma Dichloroacetate Levels ([4]; listed as Dichloroacetate): 0.948 ± 0.061 mM | decrease of ventilator time compared to placebo [5, 8]: 47% | reduction of ventilator time compared to placebo [5, 8]: 46 h | decrease of time in ICU compared to placebo [5, 9]: 41% | reduction of time in ICU compared to placebo [5, 9]: 60 h | reduction of Inotrope Score compared to placebo ([5]; Group A, by 1 hour): 50% | reduction of Inotrope Score compared to placebo ([5]; Group A, by 12 hours): 45% | reduction of Inotrope Score compared to placebo ([5]; Group A, by 24 hours): 38% | average decrease in Inotrope Score per patient compared to placebo ([5]; Group A): 44% | decrease of ventilator time compared to placebo [5, 10]: 23% | reduction of ventilator time compared to placebo [5, 10]: 18 h and 19 h | decrease of time in ICU compared to placebo [5, 11]: 40% | reduction of time in ICU compared to placebo [5, 11]: 50 h | reduction of Inotrope Score compared to placebo ([5]; Group B, by 1 hour): 57% | reduction of Inotrope Score compared to placebo ([5]; Group B, by 12 hours): 49% | reduction of Inotrope Score compared to placebo ([5]; Group B, by 24 hours): 45% | average decrease in Inotrope Score per patient compared to placebo ([5]; Group B): 51%
